Earlier results as cited in patent publication US20250228771A1, “ALKALINE INTRAORAL PRODUCTS” (priority 2022, published 2025).

Conditions: Tomar S. L. et al., Tobacco Control 1997

Compound: CN1CCCC1c1cccnc1 (stereo not shown) [nicotine]
- lower pKa: about 3.2
